Reference: PMC12389591, “Syzygium oleosum (F.Muell.) B.Hyland (Myrtaceae), an Unexplored Australian Species: Anatomical and Micromorphological Study of Leafy Twigs, and Characterization and Biological Activity of Their Essential Oil” (Plants, 2025)
Like-named read-outs stand apart in the source and are kept apart here. Marks after values point to notes of the source that are not given here.

Columns and labels:
[1] = β-Carotene Bleaching test (BCB); conditions: n = 3; for BCB IC50 (95% confidence limits): pure compounds tested at the concentration naturally present within the EO, n.r. = IC50 not reached
Method: (§1) The antioxidant and anti-inflammatory properties of S. oleosum and its major bioactive compounds were evaluated using different in vitro assays based on different mechanisms and reaction environments according to Smeriglio et al.. Results were expressed as the concentration required to inhibit 50% of the oxidative or inflammatory activity (IC50, µg/mL), with corresponding 95% confidence limits (C.L.) calculated using the Litchfield and Wilcoxon method with PHARM/PCS software (version 4; Consulting, Wynnewood, PA, USA).
In brief, 200 µL of EO (0.094–1.5 mg/mL), its main bioactive compounds (0.0289–0.4619 mg/mL, 0.0251–0.4019 mg/mL, 0.010–0.1604 mg/mL, and 0.0092–0.1479 mg/mL for terpinolene, β-pinene, α-pinene, and γ-terpinene), butylated hydroxytoluene (BHT, 1 mg/mL), or blank (0.1% DMSO) was added to 5 mL of β-carotene emulsion, prepared from 250 µL of β-carotene in ethyl acetate (1 mg/mL), 4 µL linoleic acid, and 40 µL Tween-40. An emulsion lacking β-carotene served as negative control. The mixtures were incubated at 50 °C for 2 h, and absorbance at 470 nm was measured at 20 min intervals using the same instrument as in Section TEAC Assay.

[2] = Iron-Chelating Activity assay (ICA); conditions: n = 3; for ICA IC50 (95% confidence limits): pure compounds tested at the concentration naturally present within the EO, n.r. = IC50 not reached
Method: (§2) The antioxidant and anti-inflammatory properties of S. oleosum and its major bioactive compounds were evaluated using different in vitro assays based on different mechanisms and reaction environments according to Smeriglio et al..
After 5 min at RT, 50 µL of ferrozine solution (5 mM) and deionized water were added to bring the total volume to 1.5 mL.

[3] = Ferric Reducing Antioxidant Power assay (FRAP); conditions: n = 3; for FRAP IC50 (95% confidence limits): pure compounds tested at the concentration naturally present within the EO, n.r. = IC50 not reached
Method: as §1
In this assay, 10 µL of EO (ranging from 0.313 to 5 mg/mL), its main bioactive compounds (0.096–1.54 mg/mL, 0.084–1.34 mg/mL, 0.033–0.535 mg/mL, and 0.031–0.493 mg/mL for terpinolene, β-pinene, α-pinene, and γ-terpinene) or Trolox (1.25–10 µg/mL) was mixed with 200 µL of FRAP reagent, pre-incubated at 37 °C. The reagent consisted of 10 mM 2,4,6-Tris (2-pyridyl)-s-triazine (TPTZ) in 40 mM HCl, 20 mM FeCl3·6H2O, and 300 mM acetate buffer (pH 3.6). The mixture was incubated for 4 min at RT in the dark before measuring absorbance at 593 nm with the same microplate reader used in Section TEAC Assay.

[4] = Trolox Equivalent Antioxidant Capacity assay (TEAC); conditions: n = 3; for TEAC IC50 (95% confidence limits): pure compounds tested at the concentration naturally present within the EO, n.r. = IC50 not reached
Method: as §1
To generate the 2,2′-azino-bis (3-ethylbenzothiazoline-6-sulfonic acid) (ABTS) radical cation solution, ABTS^+ (1.7 mM) was incubated with potassium persulfate (4.3 mM) in a 1:5 (v/v) ratio in the dark at room temperature (RT) for 12 h. The resulting solution was diluted to achieve an absorbance of 0.7 ± 0.02 at 734 nm. For the assay, 10 µL of either EO (ranging from 0.313 to 5 mg/mL), its main bioactive compounds (0.096–1.54 mg/mL, 0.084–1.34 mg/mL, 0.033–0.535 mg/mL, and 0.031–0.493 mg/mL for terpinolene, β-pinene, α-pinene, and γ-terpinene) or Trolox (0.625–10 µg/mL) was added to 200 µL of the ABTS solution and incubated at RT for 6 min. The absorbance at 734 nm was measured using a Multiskan™ GO UV-Vis microplate reader (Thermo Scientific, Waltham, MA, USA).

[5] = Oxygen Radical Absorbance Capacity assay (ORAC); conditions: n = 3; for ORAC IC50 (95% confidence limits): pure compounds tested at the concentration naturally present within the EO, n.r. = IC50 not reached
Method: as §1
ORAC activity was evaluated by combining 20 µL EO (ranging from 0.003 to 0.05 mg/mL), its main bioactive compounds (0.0010–0.0154 mg/mL, 0.0008–0.0134 mg/mL, 0.0003–0.0053 mg/mL, and […] for terpinolene, β-pinene, α-pinene, and γ-terpinene) or Trolox (0.25–2 µg/mL) with 120 µL of fluorescein solution (117 nM). After a 15-min pre-incubation at 37 °C, 60 µL of freshly prepared 2,2′-azobis (2-amidinopropane) dihydrochloride (AAPH) solution (40 mM) was added to initiate peroxyl radical formation. Fluorescence decay was monitored every 30 s for 90 min using excitation at 485 nm and emission at 520 nm on a FLUOstar Omega microplate reader (BMG LABTECH, Ortenberg, Germany).

trypsin = target: T1, trypsin (Bos taurus, UniProt P00760); assay: Inhibition of protease activity (PIA); assay type: biochemical; conditions: pure compounds tested at the concentration naturally present within the EO, n = 3, n.r. = IC50 not reached
T1 sequence (P00760 24-246): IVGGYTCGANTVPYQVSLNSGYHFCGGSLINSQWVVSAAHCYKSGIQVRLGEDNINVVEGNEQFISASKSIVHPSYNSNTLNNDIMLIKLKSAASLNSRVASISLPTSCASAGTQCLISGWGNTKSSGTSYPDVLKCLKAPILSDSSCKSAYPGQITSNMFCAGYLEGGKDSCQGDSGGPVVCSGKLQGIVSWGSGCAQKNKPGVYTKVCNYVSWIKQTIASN
Method: as §2
After a 20 min incubation at 37 °C, the reaction was halted with 400 µL of 2 M perchloric acid, followed by centrifugation at 3500 × g for 10 min.

BSA = BSA (Bos taurus, UniProt P02769); assay: Inhibition of protein denaturation (ADA); assay type: biochemical; conditions: for ADA IC50 (95% confidence limits): pure compounds tested at the concentration naturally present within the EO, n = 3, n.r. = IC50 not reached
[6] = target: butyrylcholinesterase (BChE) (Equus caballus, UniProt P81908); assay: Cholinesterase inhibition, BChE; assay type: biochemical; conditions: pure compounds tested at the concentration naturally present in the EO, three experiments, n.r. = IC50 not reached
Method: (§3) The cholinesterase inhibitory activity was evaluated according to the method described by Zheng and co-workers.

[7] = target: acetylcholinesterase (AChE) (Electrophorus electricus, UniProt O42275); conditions: pure compounds tested at the concentration naturally present in the EO, three experiments, n.r. = IC50 not reached
Method: as §3

Sequence of BSA (P02769 25-607): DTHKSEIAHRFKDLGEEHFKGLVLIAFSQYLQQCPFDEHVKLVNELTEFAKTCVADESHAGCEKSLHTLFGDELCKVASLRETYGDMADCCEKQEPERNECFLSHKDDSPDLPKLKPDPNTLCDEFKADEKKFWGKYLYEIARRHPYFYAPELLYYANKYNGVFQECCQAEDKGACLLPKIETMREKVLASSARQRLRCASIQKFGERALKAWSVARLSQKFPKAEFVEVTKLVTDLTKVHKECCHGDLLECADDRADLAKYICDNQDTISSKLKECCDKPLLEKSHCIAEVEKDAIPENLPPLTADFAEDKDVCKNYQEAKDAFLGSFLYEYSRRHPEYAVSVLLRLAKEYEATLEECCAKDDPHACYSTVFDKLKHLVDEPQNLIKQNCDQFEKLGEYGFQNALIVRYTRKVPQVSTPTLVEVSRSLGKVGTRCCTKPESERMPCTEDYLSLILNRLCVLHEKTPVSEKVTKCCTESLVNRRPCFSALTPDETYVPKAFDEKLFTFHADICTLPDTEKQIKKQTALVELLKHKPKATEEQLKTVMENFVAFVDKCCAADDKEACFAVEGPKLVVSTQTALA
Sequence of acetylcholinesterase (AChE) (O42275 24-633): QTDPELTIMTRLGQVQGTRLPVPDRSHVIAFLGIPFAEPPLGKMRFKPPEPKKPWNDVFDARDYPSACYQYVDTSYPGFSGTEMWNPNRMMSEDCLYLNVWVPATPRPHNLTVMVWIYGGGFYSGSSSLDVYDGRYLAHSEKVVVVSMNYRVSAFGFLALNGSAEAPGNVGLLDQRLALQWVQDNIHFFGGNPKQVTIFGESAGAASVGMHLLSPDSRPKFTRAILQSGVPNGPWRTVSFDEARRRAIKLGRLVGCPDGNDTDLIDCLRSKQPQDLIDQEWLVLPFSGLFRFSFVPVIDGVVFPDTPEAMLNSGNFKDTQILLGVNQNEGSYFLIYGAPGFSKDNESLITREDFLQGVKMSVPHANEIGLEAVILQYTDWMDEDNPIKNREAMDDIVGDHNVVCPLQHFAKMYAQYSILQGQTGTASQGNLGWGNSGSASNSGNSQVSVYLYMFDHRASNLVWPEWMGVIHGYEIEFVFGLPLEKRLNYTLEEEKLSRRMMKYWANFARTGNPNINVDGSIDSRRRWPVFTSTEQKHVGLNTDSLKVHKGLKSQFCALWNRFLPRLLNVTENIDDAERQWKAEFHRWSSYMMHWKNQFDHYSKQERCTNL
Sequence of butyrylcholinesterase (BChE) (P81908 whole entry): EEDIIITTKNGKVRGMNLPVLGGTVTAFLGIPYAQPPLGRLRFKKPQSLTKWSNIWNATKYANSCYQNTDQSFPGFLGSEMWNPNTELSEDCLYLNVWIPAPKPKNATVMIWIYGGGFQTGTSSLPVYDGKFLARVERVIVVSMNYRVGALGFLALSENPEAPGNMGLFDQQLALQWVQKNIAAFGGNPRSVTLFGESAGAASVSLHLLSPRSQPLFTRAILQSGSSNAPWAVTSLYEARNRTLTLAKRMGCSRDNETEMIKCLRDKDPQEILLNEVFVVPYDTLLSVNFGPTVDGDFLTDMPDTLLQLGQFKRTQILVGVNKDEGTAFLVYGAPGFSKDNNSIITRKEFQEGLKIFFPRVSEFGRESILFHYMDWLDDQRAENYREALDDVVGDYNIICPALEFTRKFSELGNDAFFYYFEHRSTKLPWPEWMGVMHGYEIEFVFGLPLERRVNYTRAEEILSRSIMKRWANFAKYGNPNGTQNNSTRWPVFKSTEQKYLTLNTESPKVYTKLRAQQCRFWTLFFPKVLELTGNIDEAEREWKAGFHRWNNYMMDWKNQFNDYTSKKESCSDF

Row | Compound | ICA IC50 (95% confidence limits) [2] | FRAP IC50 (95% confidence limits) [3] | BCB IC50 (95% confidence limits) [1] | TEAC IC50 (95% confidence limits) [4] | ORAC IC50 (95% confidence limits) [5] | PIA IC50 (95% confidence limits) (trypsin) | IC50 (BSA) [µM] | BChE IC50 ± standard deviation [6] | other results
1 | Cc1cc(C(C)(C)C)c(O)c(C(C)(C)C)c1 [BHT, butylated hydroxytoluene] | – | – | – | – | – | – | – | – | BCB IC50 (95% confidence limits), reference standard ([1]; RS BHT): 0.35 (0.17–80.58) *** µg/mL
2 | O=C(O)CN(CCN(CC(=O)O)CC(=O)O)CC(=O)O [EDTA] | – | – | – | – | – | – | – | – | ICA IC50 (95% confidence limits), reference standard ([2]; RS EDTA): 5.72 (2.32–87.13) *** µg/mL
3 | CC1=CCC(=C(C)C)CC1 [Terpinolene] | n.r. | n.r. | 0.21 (0.10–0.45) mg/mL | n.r. | 0.01 (0.00–0.04) mg/mL | did not reach the IC50 threshold | 2350 | – | ICA IC50 (95% confidence limits) ([2]; listed as terpinolene): no appreciable activity; FRAP IC50 (95% confidence limits) ([3]; listed as terpinolene): neither compound reached 50% inhibition; TEAC IC50 (95% confidence limits) ([4]; listed as terpinolene): neither compound reached 50% inhibition
4 | Cc1c(C)c2c(c(C)c1O)CCC(C)(C(=O)O)O2 (centres unmarked) [trolox] | – | – | – | – | – | – | – | – | FRAP IC50 (95% confidence limits), reference standard ([3]; RS trolox): 3.72 (1.60–8.66) *** µg/mL; TEAC IC50 (95% confidence limits), reference standard ([4]; RS trolox): 3.78 (1.48–9.67) *** µg/mL; ORAC IC50 (95% confidence limits), reference standard ([5]; RS trolox): 0.68 (0.22–82.17) *** µg/mL
5 | CC1=CCC2CC1C2(C)C (stereo not drawn) [α-Pinene] | – | n.r. | inactive and n.r. | n.r. ^b | n.r. | – | – | n.r. | BChE IC50 ± standard deviation ([6]; listed as α-pinene): failed to reach the IC50 threshold; ADA IC50 (95% confidence limits) (BSA): n.r.; ADA IC50 (95% confidence limits) (BSA; listed as α-pinene): did not reach 50% inhibition
6 | C=C1CCC2CC1C2(C)C (stereo not drawn) [β-Pinene] | 0.03 (0.01–0.13) mg/mL | neither compound reached 50% inhibition and n.r. | n.r. | neither compound reached 50% inhibition and n.r. | n.r. | did not reach the IC50 threshold and n.r. | 2640 | n.r. | BCB IC50 (95% confidence limits) ([1]; listed as β-pinene): inactive; BChE IC50 ± standard deviation ([6]; listed as β-pinene): failed to reach the IC50 threshold; AChE IC50 ± standard deviation [7]: n.r.; AChE IC50 ± standard deviation ([7]; listed as β-pinene): did not achieve 50% inhibition
7 | CC1=CCC(C(C)C)=CC1 [γ-Terpinene] | no appreciable activity and n.r. | n.r. | 0.02 (0.02–0.03) mg/mL | n.r. | n.r. | n.r. | 807 | n.r. | BChE IC50 ± standard deviation ([6]; listed as γ-terpinene): failed to reach the IC50 threshold; AChE IC50 ± standard deviation [7]: n.r.; AChE IC50 ± standard deviation ([7]; listed as γ-terpinene): did not achieve 50% inhibition; PIA IC50 (95% confidence limits) (trypsin; listed as γ-terpinene): did not reach the IC50 threshold
